Measured values: patent US20020137929A1, “1 - (3-heterocyclylphenyl) isothiourea, -isourea, -guanidine and -amidine herbicidal agents” (Intellectual Property Department, BASF Aktiengesellschaft, priority 1998, published 2002)

Experiments:
CASOB (Sicklepod) = test: Preemergence herbicidal evaluation; format: in vivo, Cassia obtusifolia; details: rated 4-5 weeks after treatment
In short: (§1)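 Greenhouse preemergence test: seed-soil mix sown on ~1 inch soil; aqueous acetone spray at equivalent of ~0.0156–0.500 kg/ha; greenhouse-held and watered; scored 0–9 visually at 4–5 weeks.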

[1] = system: TRZAWR (Wheat, Winter, cv Riband); test: Postemergence herbicidal evaluation; format: in vivo, Triticum aestivum; details: postemergence
In short: (§2)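 Two-week-old seedlings sprayed with compound in 50/50 acetone/water plus 0.5% TWEEN 20, at about 0.0156 to 0.500 kg/ha, nozzle at 40 psi. Kept in greenhouse; rated visually 4-5 weeks after treatment on a 0-9 scale versus control, repeat tests averaged.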

ABUTH (Velvetleaf) = test: Postemergence herbicidal evaluation; format: in vivo, Abutilon theophrasti; details: postemergence
In short: as §2

[2] = system: IPOHE (Morningglory, Ivyleaf); test: Postemergence herbicidal evaluation; format: in vivo, Ipomoea hederacea; details: postemergence
In short: as §2

ECHCG (Barnyardgrass) [3] = test: Preemergence herbicidal evaluation; format: in vivo, Echinochloa crus-galli; details: rated 4-5 weeks after treatment
In short: as §1

[4] = system: CHEAL (Lambsquarters, Common); test: Preemergence herbicidal evaluation; format: in vivo, Chenopodium album; details: rated 4-5 weeks after treatment
In short: as §1

ZEAMX (Corn, Field) = test: Preemergence herbicidal evaluation; format: in vivo, Zea mays; details: rated 4-5 weeks after treatment
In short: as §1

SETVI (Foxtail, Green) = test: Postemergence herbicidal evaluation; format: in vivo, Setaria viridis; details: postemergence
In short: as §2

[5] = system: GLXMAW (Soybean, Williams); test: Postemergence herbicidal evaluation; format: in vivo, Glycine max, (L.) Merr. cv Williams; details: postemergence
In short: as §2

ECHCG (Barnyardgrass) [6] = test: Postemergence herbicidal evaluation; format: in vivo, Echinochloa crus-galli; details: postemergence
In short: as §2

AMBEL (Ragweed, Common) = test: Postemergence herbicidal evaluation; format: in vivo, Ambrosia artemisifolia; details: postemergence
In short: as §2

GALAP (Galium) = test: Preemergence herbicidal evaluation; format: in vivo, Galium aparine; details: rated 4-5 weeks after treatment
In short: as §1

[7] = system: IPOHE (Morningglory, Ivyleaf); test: Preemergence herbicidal evaluation; format: in vivo, Ipomoea hederacea; details: rated 4-5 weeks after treatment
In short: as §1

Cn1c(C(F)(F)F)cc(=O)n(-c2cc(N=C3SCC(=O)N3C3CCCC3)c(Cl)cc2F)c1=O [Compound 166, 3-{4-Chloro-5-[(3-cyclopentyl-4-oxo-2-thiazolidinylidene)amino]-2-fluorophenyl}-1-methyl-6-(trifluoromethyl)-2,4(1H,3H)-pyrimidinedione]
Preemergence herbicidal rating CASOB (CASOB (Sicklepod); 0.0156 kg/ha): 0.0
Preemergence herbicidal rating CASOB (CASOB (Sicklepod); 0.0313 kg/ha): 0.0
Preemergence herbicidal rating CASOB (CASOB (Sicklepod); 0.0625 kg/ha): 2.0
Preemergence herbicidal rating CASOB (CASOB (Sicklepod); 0.1250 kg/ha): 0.0
Preemergence herbicidal rating CASOB (CASOB (Sicklepod); 0.2500 kg/ha): 4.0
Preemergence herbicidal rating CASOB (CASOB (Sicklepod); 0.5000 kg/ha): 6.0
Herbicidal rating TRZAWR ([1]; rate 0.0156 kg/ha): 1.5
Herbicidal rating TRZAWR ([1]; rate 0.0313 kg/ha): 1.5
Herbicidal rating TRZAWR ([1]; rate 0.0625 kg/ha): 2.5
Herbicidal rating TRZAWR ([1]; rate 0.1250 kg/ha): 3.0
Herbicidal rating ABUTH (ABUTH (Velvetleaf); rate 0.0156 kg/ha): 2.0
Herbicidal rating ABUTH (ABUTH (Velvetleaf); rate 0.0313 kg/ha): 1.0
Herbicidal rating ABUTH (ABUTH (Velvetleaf); rate 0.0625 kg/ha): 3.0
Herbicidal rating ABUTH (ABUTH (Velvetleaf); rate 0.1250 kg/ha): 9.0
Herbicidal rating IPOHE ([2]; rate 0.0156 kg/ha): 0.0
Herbicidal rating IPOHE ([2]; rate 0.0313 kg/ha): 2.0
Herbicidal rating IPOHE ([2]; rate 0.0625 kg/ha): 2.0
Herbicidal rating IPOHE ([2]; rate 0.1250 kg/ha): 7.0
Preemergence herbicidal rating ECHCG (ECHCG (Barnyardgrass) [3]; 0.0156 kg/ha): 0.0
Preemergence herbicidal rating ECHCG (ECHCG (Barnyardgrass) [3]; 0.0313 kg/ha): 0.0
Preemergence herbicidal rating ECHCG (ECHCG (Barnyardgrass) [3]; 0.0625 kg/ha): 1.0
Preemergence herbicidal rating ECHCG (ECHCG (Barnyardgrass) [3]; 0.1250 kg/ha): 0.0
Preemergence herbicidal rating ECHCG (ECHCG (Barnyardgrass) [3]; 0.2500 kg/ha): 0.0
Preemergence herbicidal rating ECHCG (ECHCG (Barnyardgrass) [3]; 0.5000 kg/ha): 4.0
Preemergence herbicidal rating CHEAL ([4]; 0.0156 kg/ha): 1.0
Preemergence herbicidal rating CHEAL ([4]; 0.0313 kg/ha): 0.0
Preemergence herbicidal rating CHEAL ([4]; 0.0625 kg/ha): 3.0
Preemergence herbicidal rating CHEAL ([4]; 0.1250 kg/ha): 9.0
Preemergence herbicidal rating CHEAL ([4]; 0.2500 kg/ha): 9.0
Preemergence herbicidal rating CHEAL ([4]; 0.5000 kg/ha): 9.0
Preemergence herbicidal rating ZEAMX (ZEAMX (Corn, Field); 0.0156 kg/ha): 0.0
Preemergence herbicidal rating ZEAMX (ZEAMX (Corn, Field); 0.0313 kg/ha): 0.0
Preemergence herbicidal rating ZEAMX (ZEAMX (Corn, Field); 0.0625 kg/ha): 1.0
Preemergence herbicidal rating ZEAMX (ZEAMX (Corn, Field); 0.1250 kg/ha): 1.0
Preemergence herbicidal rating ZEAMX (ZEAMX (Corn, Field); 0.2500 kg/ha): 3.0
Preemergence herbicidal rating ZEAMX (ZEAMX (Corn, Field); 0.5000 kg/ha): 6.0
Herbicidal rating SETVI (SETVI (Foxtail, Green); rate 0.0156 kg/ha): 0.0
Herbicidal rating SETVI (SETVI (Foxtail, Green); rate 0.0313 kg/ha): 0.0
Herbicidal rating SETVI (SETVI (Foxtail, Green); rate 0.0625 kg/ha): 1.0
Herbicidal rating SETVI (SETVI (Foxtail, Green); rate 0.1250 kg/ha): 2.0
Herbicidal rating GLXMAW ([5]; rate 0.0156 kg/ha): 4.0
Herbicidal rating GLXMAW ([5]; rate 0.0313 kg/ha): 3.5
Herbicidal rating GLXMAW ([5]; rate 0.0625 kg/ha): 4.0
Herbicidal rating GLXMAW ([5]; rate 0.1250 kg/ha): 5.0
Herbicidal rating ECHCG (ECHCG (Barnyardgrass) [6]; rate 0.0156 kg/ha): 0.0
Herbicidal rating ECHCG (ECHCG (Barnyardgrass) [6]; rate 0.0313 kg/ha): 0.0
Herbicidal rating ECHCG (ECHCG (Barnyardgrass) [6]; rate 0.0625 kg/ha): 1.0
Herbicidal rating ECHCG (ECHCG (Barnyardgrass) [6]; rate 0.1250 kg/ha): 2.0
Herbicidal rating AMBEL (AMBEL (Ragweed, Common); rate 0.0156 kg/ha): 0.0
Herbicidal rating AMBEL (AMBEL (Ragweed, Common); rate 0.0313 kg/ha): 3.0
Herbicidal rating AMBEL (AMBEL (Ragweed, Common); rate 0.0625 kg/ha): 6.0
Herbicidal rating AMBEL (AMBEL (Ragweed, Common); rate 0.1250 kg/ha): 7.0
Preemergence herbicidal rating GALAP (GALAP (Galium); 0.0156 kg/ha): 0.0
Preemergence herbicidal rating GALAP (GALAP (Galium); 0.0313 kg/ha): 0.0
Preemergence herbicidal rating GALAP (GALAP (Galium); 0.0625 kg/ha): 2.0
Preemergence herbicidal rating GALAP (GALAP (Galium); 0.1250 kg/ha): 5.0
Preemergence herbicidal rating GALAP (GALAP (Galium); 0.2500 kg/ha): 7.0
Preemergence herbicidal rating GALAP (GALAP (Galium); 0.5000 kg/ha): 8.0
Preemergence herbicidal rating IPOHE ([7]; 0.0156 kg/ha): 0.0
Preemergence herbicidal rating IPOHE ([7]; 0.0313 kg/ha): 3.0
Preemergence herbicidal rating IPOHE ([7]; 0.1250 kg/ha): 2.0
Preemergence herbicidal rating IPOHE ([7]; 0.2500 kg/ha): 6.0
Preemergence herbicidal rating IPOHE ([7]; 0.5000 kg/ha): 8.0

CCOC(=O)CN1C(=O)C(C(=O)OC(C)(C)C)SC1=Nc1cc(-n2c(=O)cc(C(F)(F)F)n(C)c2=O)c(F)cc1Cl (stereo not shown) [Compound 167, 5-Carboxy-2-{{2-chloro-5-[3,6-dihydro-3-methyl-2,6-dioxo-4-(trifluoromethyl)-1(2H)-pyrimidinyl]-4-fluorophenyl}imino}-4-oxo-3-thiazolidineacetic acid, 5-tert-butyl ethyl ester]
Preemergence herbicidal rating CASOB (CASOB (Sicklepod); 0.0156 kg/ha): 0.0
Preemergence herbicidal rating CASOB (CASOB (Sicklepod); 0.0313 kg/ha): 0.0
Preemergence herbicidal rating CASOB (CASOB (Sicklepod); 0.0625 kg/ha): 1.0
Preemergence herbicidal rating CASOB (CASOB (Sicklepod); 0.1250 kg/ha): 1.0
Preemergence herbicidal rating CASOB (CASOB (Sicklepod); 0.2500 kg/ha): 4.0
Preemergence herbicidal rating CASOB (CASOB (Sicklepod); 0.5000 kg/ha): 9.0
Herbicidal rating TRZAWR ([1]; rate 0.0156 kg/ha): 4.0
Herbicidal rating TRZAWR ([1]; rate 0.0313 kg/ha): 4.0
Herbicidal rating TRZAWR ([1]; rate 0.0625 kg/ha): 4.0
Herbicidal rating TRZAWR ([1]; rate 0.1250 kg/ha): 4.5
Herbicidal rating ABUTH (ABUTH (Velvetleaf); rate 0.0156 kg/ha): 9.0
Herbicidal rating ABUTH (ABUTH (Velvetleaf); rate 0.0313 kg/ha): 9.0
Herbicidal rating ABUTH (ABUTH (Velvetleaf); rate 0.0625 kg/ha): 9.0
Herbicidal rating ABUTH (ABUTH (Velvetleaf); rate 0.1250 kg/ha): 9.0
Herbicidal rating IPOHE ([2]; rate 0.0156 kg/ha): 9.0
Herbicidal rating IPOHE ([2]; rate 0.0313 kg/ha): 9.0
Herbicidal rating IPOHE ([2]; rate 0.0625 kg/ha): 9.0
Herbicidal rating IPOHE ([2]; rate 0.1250 kg/ha): 9.0
Preemergence herbicidal rating ECHCG (ECHCG (Barnyardgrass) [3]; 0.0156 kg/ha): 0.0
Preemergence herbicidal rating ECHCG (ECHCG (Barnyardgrass) [3]; 0.0313 kg/ha): 0.0
Preemergence herbicidal rating ECHCG (ECHCG (Barnyardgrass) [3]; 0.0625 kg/ha): 6.0
Preemergence herbicidal rating ECHCG (ECHCG (Barnyardgrass) [3]; 0.1250 kg/ha): 9.0
Preemergence herbicidal rating ECHCG (ECHCG (Barnyardgrass) [3]; 0.2500 kg/ha): 9.0
Preemergence herbicidal rating ECHCG (ECHCG (Barnyardgrass) [3]; 0.5000 kg/ha): 8.0
Preemergence herbicidal rating CHEAL ([4]; 0.0156 kg/ha): 7.0
Preemergence herbicidal rating CHEAL ([4]; 0.0313 kg/ha): 7.0
Preemergence herbicidal rating CHEAL ([4]; 0.0625 kg/ha): 9.0
Preemergence herbicidal rating CHEAL ([4]; 0.1250 kg/ha): 9.0
Preemergence herbicidal rating CHEAL ([4]; 0.2500 kg/ha): 9.0
Preemergence herbicidal rating CHEAL ([4]; 0.5000 kg/ha): 9.0
Preemergence herbicidal rating ZEAMX (ZEAMX (Corn, Field); 0.0156 kg/ha): 0.0
Preemergence herbicidal rating ZEAMX (ZEAMX (Corn, Field); 0.0313 kg/ha): 0.0
Preemergence herbicidal rating ZEAMX (ZEAMX (Corn, Field); 0.0625 kg/ha): 3.0
Preemergence herbicidal rating ZEAMX (ZEAMX (Corn, Field); 0.1250 kg/ha): 3.0
Preemergence herbicidal rating ZEAMX (ZEAMX (Corn, Field); 0.2500 kg/ha): 6.0
Preemergence herbicidal rating ZEAMX (ZEAMX (Corn, Field); 0.5000 kg/ha): 7.0
Herbicidal rating SETVI (SETVI (Foxtail, Green); rate 0.0156 kg/ha): 2.0
Herbicidal rating SETVI (SETVI (Foxtail, Green); rate 0.0313 kg/ha): 4.0
Herbicidal rating SETVI (SETVI (Foxtail, Green); rate 0.0625 kg/ha): 9.0
Herbicidal rating SETVI (SETVI (Foxtail, Green); rate 0.1250 kg/ha): 9.0
Herbicidal rating GLXMAW ([5]; rate 0.0156 kg/ha): 5.0
Herbicidal rating GLXMAW ([5]; rate 0.0313 kg/ha): 6.0
Herbicidal rating GLXMAW ([5]; rate 0.0625 kg/ha): 6.5
Herbicidal rating GLXMAW ([5]; rate 0.1250 kg/ha): 6.5
Herbicidal rating ECHCG (ECHCG (Barnyardgrass) [6]; rate 0.0156 kg/ha): 3.0
Herbicidal rating ECHCG (ECHCG (Barnyardgrass) [6]; rate 0.0313 kg/ha): 3.0
Herbicidal rating ECHCG (ECHCG (Barnyardgrass) [6]; rate 0.0625 kg/ha): 3.0
Herbicidal rating ECHCG (ECHCG (Barnyardgrass) [6]; rate 0.1250 kg/ha): 3.0
Herbicidal rating AMBEL (AMBEL (Ragweed, Common); rate 0.0156 kg/ha): 4.0
Herbicidal rating AMBEL (AMBEL (Ragweed, Common); rate 0.0313 kg/ha): 7.0
Herbicidal rating AMBEL (AMBEL (Ragweed, Common); rate 0.0625 kg/ha): 9.0
Herbicidal rating AMBEL (AMBEL (Ragweed, Common); rate 0.1250 kg/ha): 7.0
Preemergence herbicidal rating GALAP (GALAP (Galium); 0.0156 kg/ha): 1.0
Preemergence herbicidal rating GALAP (GALAP (Galium); 0.0313 kg/ha): 5.0
Preemergence herbicidal rating GALAP (GALAP (Galium); 0.0625 kg/ha): 7.0
Preemergence herbicidal rating GALAP (GALAP (Galium); 0.1250 kg/ha): 9.0
Preemergence herbicidal rating GALAP (GALAP (Galium); 0.2500 kg/ha): 6.0
Preemergence herbicidal rating GALAP (GALAP (Galium); 0.5000 kg/ha): 7.0
Preemergence herbicidal rating IPOHE ([7]; 0.0156 kg/ha): 0.0
Preemergence herbicidal rating IPOHE ([7]; 0.0313 kg/ha): 0.0
Preemergence herbicidal rating IPOHE ([7]; 0.0625 kg/ha): 2.0
Preemergence herbicidal rating IPOHE ([7]; 0.1250 kg/ha): 3.0
Preemergence herbicidal rating IPOHE ([7]; 0.2500 kg/ha): 9.0
Preemergence herbicidal rating IPOHE ([7]; 0.5000 kg/ha): 9.0
